From PubChem BioAssay (NCI)
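These data come from cells grown in 96-well plates and exposed to compound for 48 hours at five concentrations. Here, GI50 denotes the concentration required for 50% inhibition of growth. TGI: concentration producing complete growth inhibition.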

Tests used:
Test in all cases: NCI-60 cell line screen, 48 h
[1] = system: SW-620 colon
[2] = system: OVCAR-5 ovarian
[3] = system: MCF7 breast
[4] = system: CAKI-1 renal
[5] = system: UACC-257 melanoma
[6] = system: HL-60(TB) leukemia
[7] = system: NCI-H460 lung
[8] = system: UO-31 renal
[9] = system: SF-295 CNS
[10] = system: OVCAR-4 ovarian
[11] = system: A549 NSCLC
[12] = system: SF-539 CNS
[13] = system: SK-MEL-2 melanoma
[14] = system: COLO 205 colon
[15] = system: U251 CNS
[16] = system: CCRF-CEM leukemia
[17] = system: MDA-MB-435
[18] = system: DU-145 prostate
[19] = system: IGROV1 ovarian
[20] = system: NCI-H23 lung
[21] = system: MALME-3M melanoma
[22] = system: UACC-62 melanoma
[23] = system: OVCAR-8 ovarian
[24] = system: LOX IMVI melanoma
[25] = system: MDA-MB-231 breast
[26] = system: HS 578T breast
[27] = system: HCT-15 colon
[28] = system: BT-549 breast
[29] = system: HOP-62 NSCLC
[30] = system: EKVX NSCLC
[31] = system: SR leukemia
[32] = system: OVCAR-3 ovarian
[33] = system: SNB-75 CNS
[34] = system: SK-MEL-5 melanoma
[35] = system: HOP-92 NSCLC
[36] = system: A498 renal
[37] = system: HCT-116 colon
[38] = system: SK-OV-3 ovarian
[39] = system: K-562 leukemia
[40] = system: RXF 393 renal
[41] = system: HCC-2998 colon
[42] = system: KM12 colon
[43] = system: TK-10 renal
[44] = system: SK-MEL-28 melanoma
[45] = system: NCI-H522 lung
[46] = system: RPMI-8226 leukemia
[47] = system: ACHN renal
[48] = system: NCI-H226 lung
[49] = system: SNB-19 CNS
[50] = system: 786-0 renal
[51] = system: SN12C renal
[52] = system: SF-268 CNS
[53] = system: NCI/ADR-RES ovarian
[54] = system: HT29 colon

Which GI50 [1] does the source give for `COC(=O)N1CCN(CCNCc2ccc(NC(=O)c3ccc(C)c(C#Cc4cnc5cccnn45)c3)cc2C(F)(F)F)CC1` here?
Its GI50 is 1320 nM.

And the TGI [1]?
Its TGI is 3.41 µM.

What about the GI50 [2] of the same compound?
The GI50 was 1390 nM.

What about the TGI [2] of the same compound?
The TGI was 3.97 µM.

What about the GI50 [3] of the same compound?
Its GI50 is 1470 nM.

What about the TGI [3] of the same compound?
Its TGI is 3.06 µM.

And the GI50 [4]?
The GI50 was 1890 nM.

And the TGI [4]?
Its TGI is 4.71 µM.

And the GI50 [5]?
Its GI50 is 1530 nM.

What about the TGI [5] of the same compound?
The TGI was 3.27 µM.

What about the GI50 [6] of the same compound?
The GI50 was 342 nM.

And the TGI [6]?
The TGI was 3.22 µM.

What about the GI50 [7] of the same compound?
Its GI50 is 1850 nM.

What about the TGI [7] of the same compound?
Its TGI is 3.76 µM.

What about the GI50 [8] of the same compound?
Its GI50 is 1340 nM.

And the TGI [8]?
The TGI was 3.14 µM.

And the GI50 [9]?
Its GI50 is 1540 nM.

What about the TGI [9] of the same compound?
Its TGI is 3.03 µM.

What about the GI50 [10] of the same compound?
Its GI50 is 1930 nM.

And the TGI [10]?
The TGI was 5.86 µM.

And the GI50 [11]?
The GI50 was 1690 nM.

And the TGI [11]?
The TGI was 4.21 µM.

And the GI50 [12]?
Its GI50 is 1400 nM.

And the TGI [12]?
Its TGI is 2780 nM.

And the GI50 [13]?
The GI50 was 1150 nM.

What about the TGI [13] of the same compound?
The TGI was 2800 nM.

And the GI50 [14]?
The GI50 was 1190 nM.

What about the TGI [14] of the same compound?
Its TGI is 2790 nM.

What about the GI50 [15] of the same compound?
The GI50 was 1530 nM.

And the TGI [15]?
The TGI was 3.32 µM.

What about the GI50 [16] of the same compound?
The GI50 was 1460 nM.

And the TGI [16]?
The TGI was 8.22 µM.

And the GI50 [17]?
Its GI50 is 1080 nM.

And the TGI [17]?
The TGI was 2390 nM.

What about the GI50 [18] of the same compound?
The GI50 was 2220 nM.

What about the TGI [18] of the same compound?
The TGI was 4.77 µM.

What about the GI50 [19] of the same compound?
The GI50 was 1410 nM.

What about the TGI [19] of the same compound?
Its TGI is 3.43 µM.

And the GI50 [20]?
The GI50 was 1170 nM.

What about the TGI [20] of the same compound?
The TGI was 2880 nM.

And the GI50 [21]?
Its GI50 is 893 nM.

And the TGI [21]?
The TGI was 2410 nM.

And the GI50 [22]?
Its GI50 is 1430 nM.

And the TGI [22]?
The TGI was 3.04 µM.

And the GI50 [23]?
Its GI50 is 1820 nM.

And the TGI [23]?
The TGI was 4.35 µM.

And the GI50 [24]?
The GI50 was 743 nM.

And the TGI [24]?
Its TGI is 2050 nM.

What about the GI50 [25] of the same compound?
The GI50 was 1260 nM.

And the TGI [25]?
The TGI was 3.25 µM.

What about the GI50 [26] of the same compound?
The GI50 was 1720 nM.

And the TGI [26]?
The TGI was 5.04 µM.

And the GI50 [27]?
Its GI50 is 1100 nM.

And the TGI [27]?
The TGI was 3.07 µM.

And the GI50 [28]?
The GI50 was 2400 nM.

And the TGI [28]?
Its TGI is 4.95 µM.

And the GI50 [29]?
The GI50 was 1590 nM.

What about the TGI [29] of the same compound?
Its TGI is 3.43 µM.

And the GI50 [30]?
Its GI50 is 2040 nM.

And the TGI [30]?
Its TGI is 4.39 µM.

And the GI50 [31]?
Its GI50 is 796 nM.

And the TGI [31]?
The TGI was 22.1 µM.

And the GI50 [32]?
Its GI50 is 2000 nM.

And the TGI [32]?
Its TGI is 4.2 µM.

And the GI50 [33]?
The GI50 was 372 nM.

And the TGI [33]?
The TGI was 1950 nM.

And the GI50 [34]?
Its GI50 is 1580 nM.

What about the TGI [34] of the same compound?
The TGI was 2970 nM.

And the GI50 [35]?
The GI50 was 867 nM.

And the TGI [35]?
The TGI was 2830 nM.

And the GI50 [36]?
The GI50 was 2800 nM.

What about the TGI [36] of the same compound?
Its TGI is 7.35 µM.

And the GI50 [37]?
The GI50 was 630 nM.

What about the TGI [37] of the same compound?
The TGI was 2320 nM.

What about the GI50 [38] of the same compound?
The GI50 was 2070 nM.

What about the TGI [38] of the same compound?
Its TGI is 3.85 µM.

What about the TGI [39] of the same compound?
The TGI was over 100 µM.

And the GI50 [40]?
The GI50 was 1730 nM.

What about the TGI [40] of the same compound?
The TGI was 3.21 µM.

And the GI50 [41]?
Its GI50 is 1480 nM.

And the TGI [41]?
Its TGI is 2860 nM.

What about the GI50 [42] of the same compound?
Its GI50 is 434 nM.

What about the TGI [42] of the same compound?
The TGI was 1730 nM.

And the GI50 [43]?
Its GI50 is 2210 nM.

What about the TGI [43] of the same compound?
Its TGI is 5.07 µM.

What about the GI50 [44] of the same compound?
Its GI50 is 1480 nM.

What about the TGI [44] of the same compound?
Its TGI is 2890 nM.

What about the GI50 [45] of the same compound?
The GI50 was 1510 nM.

What about the TGI [45] of the same compound?
Its TGI is 3.23 µM.

What about the GI50 [46] of the same compound?
Its GI50 is 1370 nM.

What about the TGI [46] of the same compound?
The TGI was 4.32 µM.

And the GI50 [47]?
Its GI50 is 2320 nM.

What about the TGI [47] of the same compound?
The TGI was 6.85 µM.

And the GI50 [48]?
The GI50 was 1390 nM.

And the TGI [48]?
The TGI was 5.32 µM.

And the GI50 [49]?
The GI50 was 2530 nM.

And the TGI [49]?
Its TGI is 5.89 µM.

What about the GI50 [50] of the same compound?
Its GI50 is 1450 nM.

And the TGI [50]?
The TGI was 3.54 µM.

What about the GI50 [51] of the same compound?
The GI50 was 1680 nM.

What about the TGI [51] of the same compound?
Its TGI is 4.08 µM.

What about the GI50 [52] of the same compound?
The GI50 was 2080 nM.

What about the TGI [52] of the same compound?
The TGI was 4.78 µM.

And the GI50 [53]?
The GI50 was 2020 nM.

What about the TGI [53] of the same compound?
Its TGI is 6.24 µM.

And the GI50 [54]?
Its GI50 is 769 nM.

What about the TGI [54] of the same compound?
The TGI was 2320 nM.
